Test results published in ChEMBL document CHEMBL1155947, “Discovery of a novel series of benzoic acid derivatives as potent and selective human beta3 adrenergic receptor agonists with good oral bioavailability. 3. Phenylethanolaminotetraline (PEAT) skeleton containing biphenyl or biphenyl ether moiety” (J Med Chem, 2008).

Columns and labels:
[1] = target: Beta-3 adrenergic receptor (Homo sapiens, UniProt P13945); experiment: Agonist activity at human cloned beta3 adrenergic receptor expressed in CHO cells assessed as cAMP accumulation; type: functional, cell-based
Chain of Beta-3 adrenergic receptor (P13945 whole entry): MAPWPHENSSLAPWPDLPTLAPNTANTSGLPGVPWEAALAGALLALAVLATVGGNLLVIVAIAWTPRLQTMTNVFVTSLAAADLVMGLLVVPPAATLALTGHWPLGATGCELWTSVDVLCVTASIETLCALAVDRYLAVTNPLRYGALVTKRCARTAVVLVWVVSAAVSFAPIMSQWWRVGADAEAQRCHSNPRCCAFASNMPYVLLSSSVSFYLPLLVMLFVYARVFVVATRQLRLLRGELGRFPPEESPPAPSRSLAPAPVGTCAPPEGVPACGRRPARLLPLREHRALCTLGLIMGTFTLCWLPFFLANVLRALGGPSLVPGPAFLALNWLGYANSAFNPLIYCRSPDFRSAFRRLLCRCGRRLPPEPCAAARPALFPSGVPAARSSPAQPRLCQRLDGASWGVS

Homo sapiens = species: Homo sapiens; experiment: Ratio of EC50 for human cloned beta-1 adrenergic receptor to EC50 for human cloned beta3 adrenergic receptor
[2] = target: Beta-1 adrenergic receptor (Homo sapiens, UniProt P08588)
Chain of Beta-1 adrenergic receptor (P08588 whole entry): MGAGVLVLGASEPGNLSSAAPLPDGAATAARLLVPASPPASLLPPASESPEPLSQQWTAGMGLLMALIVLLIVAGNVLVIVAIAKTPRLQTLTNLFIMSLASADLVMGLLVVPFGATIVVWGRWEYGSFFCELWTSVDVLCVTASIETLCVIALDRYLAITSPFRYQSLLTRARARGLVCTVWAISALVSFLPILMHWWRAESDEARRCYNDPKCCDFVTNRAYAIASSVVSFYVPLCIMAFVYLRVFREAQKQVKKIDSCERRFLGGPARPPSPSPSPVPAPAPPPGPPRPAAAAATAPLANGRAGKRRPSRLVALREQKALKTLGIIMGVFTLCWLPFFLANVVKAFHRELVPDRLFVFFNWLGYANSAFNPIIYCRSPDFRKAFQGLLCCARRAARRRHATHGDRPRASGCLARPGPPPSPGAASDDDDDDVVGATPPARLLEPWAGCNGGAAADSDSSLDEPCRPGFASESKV
Description: Agonist activity at human cloned beta-1 adrenergic receptor expressed in CHO cells assessed as cAMP accumulation

[3] = target: Beta-2 adrenergic receptor (Homo sapiens, UniProt P07550); experiment: Agonist activity at human beta2 adrenergic receptor expressed in CHO cells assessed as cAMP accumulation; type: functional, cell-based
Chain of Beta-2 adrenergic receptor (P07550 whole entry): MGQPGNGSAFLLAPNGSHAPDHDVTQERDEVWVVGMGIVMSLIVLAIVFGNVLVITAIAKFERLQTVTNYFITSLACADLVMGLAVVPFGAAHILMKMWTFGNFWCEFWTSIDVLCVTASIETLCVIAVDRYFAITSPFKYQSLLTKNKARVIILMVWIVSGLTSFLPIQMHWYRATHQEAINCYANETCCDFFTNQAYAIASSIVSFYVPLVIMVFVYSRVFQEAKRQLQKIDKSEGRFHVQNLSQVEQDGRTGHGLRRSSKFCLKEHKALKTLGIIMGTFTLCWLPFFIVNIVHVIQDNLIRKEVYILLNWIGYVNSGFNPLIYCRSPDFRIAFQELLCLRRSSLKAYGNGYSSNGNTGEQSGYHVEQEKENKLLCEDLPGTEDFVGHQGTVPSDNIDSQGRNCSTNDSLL

Canis familiaris [4] = experiment: Ratio of Cmax for drug to Cmax for 3-[((7S)-7-{[(2R)-2-(3-Chlorophenyl)-2-hydroxyethyl]amino}-5,6,7,8-tetrahydro-2-naphthalenyl)oxy]benzoic acid hydrochloride in dog at 0.1 or 0.20 mg/kg, po by cassette dosing assay; type: ADME, organism-based, Canis lupus familiaris; parameters: dose 0.2 mg/kg, route oral; conditions: in vivo, 0.2 mg/kg
Canis familiaris [5] = experiment: Ratio of AUC for drug to AUC for 3-[((7S)-7-{[(2R)-2-(3-Chlorophenyl)-2-hydroxyethyl]amino}-5,6,7,8-tetrahydro-2-naphthalenyl)oxy]benzoic acid hydrochloride in dog at 0.1 or 0.20 mg/kg, po by cassette dosing assay; type: ADME, organism-based, Canis lupus familiaris; parameters: dose 0.2 mg/kg, route oral; conditions: in vivo, 0.2 mg/kg
Canis familiaris [6] = experiment: Ratio of Cmax for drug to Cmax for 4-((7S)-7-{[(2R)-2-(3-Chlorophenyl)-2-hydroxyethyl]amino}-5,6,7,8-tetrahydro-2-naphthalenyl)benzoic acid hydrochloride in dog at 0.1 or 0.20 mg/kg, po by cassette dosing assay; type: ADME, organism-based, Canis lupus familiaris; parameters: dose 0.2 mg/kg, route oral; conditions: in vivo, 0.2 mg/kg
Canis familiaris [7] = experiment: Ratio of AUC for drug to AUC for 4-((7S)-7-{[(2R)-2-(3-Chlorophenyl)-2-hydroxyethyl]amino}-5,6,7,8-tetrahydro-2-naphthalenyl)benzoic acid hydrochloride in dog at 0.1 or 0.20 mg/kg, po by cassette dosing assay; type: ADME, organism-based, Canis lupus familiaris; parameters: dose 0.2 mg/kg, route oral; conditions: in vivo, 0.2 mg/kg

| SMILES | EC50 [1] [nM] | Ratio EC50 (Homo sapiens) | EC50 [2] [nM] | EC50 [3] [nM] | Ratio (Canis familiaris [4]) | Ratio AUC (Canis familiaris [5]) | Ratio (Canis familiaris [6]) | Ratio AUC (Canis familiaris [7]) |
| --- | --- | --- | --- | --- | --- | --- | --- | --- |
| O=C(O)c1ccc(-c2ccc3c(c2)C[C@@H](NC[C@H](O)c2cccnc2)CC3)cc1 | 13 | > 77 | > 1000 | – | – | – | – | – |
| Cc1ccc(Oc2ccc3c(c2)C[C@@H](NC[C@H](O)c2cccc(Cl)c2)CC3)cc1C(=O)O | 9 | > 111 | > 1000 | – | – | – | – | – |
| O=C(O)c1cc(Oc2ccc3c(c2)C[C@@H](NC[C@H](O)c2cccc(Cl)c2)CC3)ccc1Cl | 16 | > 62 | > 1000 | – | – | – | – | – |
| COc1ccc(Oc2ccc3c(c2)C[C@@H](NC[C@H](O)c2cccc(Cl)c2)CC3)cc1C(=O)O | 6 | > 166 | > 1000 | > 1000 | – | – | – | – |
| O=C(O)c1cccnc1Oc1ccc2c(c1)C[C@@H](NC[C@H](O)c1cccc(Cl)c1)CC2 | 49 | > 2 | > 100 | – | – | – | – | – |
| N#Cc1ccc([C@@H](O)CN[C@H]2CCc3ccc(-c4ccc(C(=O)O)cc4)cc3C2)cc1 | 28 | > 36 | > 1000 | – | – | – | – | – |
| O=C(O)c1ccc(Oc2ccc3c(c2)C[C@@H](NC[C@H](O)c2cccc(Cl)c2)CC3)s1 | 5.7 | 117 | 670 | > 1000 | – | – | – | – |
| CC(C)Oc1cc(-c2ccc3c(c2)C[C@@H](NC[C@H](O)c2ccc(Cl)cc2)CC3)ccc1C(=O)O | 0.7 | 443 | 310 | – | – | – | – | – |
| O=C(O)COc1cccc(Oc2ccc3c(c2)C[C@@H](NC[C@H](O)c2cccc(Cl)c2)CC3)c1 | 22 | > 4.5 | > 100 | – | – | – | – | – |
| O=C(O)c1ccc(-c2ccc3c(c2)C[C@@H](NC[C@H](O)c2ccc(C(F)(F)F)cc2)CC3)cc1 | 3.5 | 221 | 775 | > 1000 | – | – | – | – |
| O=C(O)c1cccc(-c2ccc3c(c2)C[C@@H](NC[C@H](O)c2cccc(Cl)c2)CC3)c1 | 29 | > 3.4 | > 100 | – | – | – | – | – |
| O=C(O)c1ccc(-c2ccc3c(c2)C[C@@H](NC[C@H](O)c2ccc(Cl)cc2)CC3)cc1F | 0.81 | 802 | 650 | – | – | – | – | – |
| O=C(O)COc1cccc(-c2ccc3c(c2)C[C@@H](NC[C@H](O)c2cccc(Cl)c2)CC3)c1 | 10 | > 10 | > 100 | – | – | – | – | – |
| COc1cc(Oc2ccc3c(c2)C[C@@H](NC[C@H](O)c2cccc(Cl)c2)CC3)cc(C(=O)O)c1 | 5.3 | 168 | 890 | > 1000 | – | – | – | – |
| Nc1cc(Oc2ccc3c(c2)C[C@@H](NC[C@H](O)c2cccc(Cl)c2)CC3)cc(C(=O)O)c1 | 3.2 | 150 | 480 | – | 0.26 | 0.2 | – | – |
| O=C(O)c1cc(NC2CCCCC2)cc(Oc2ccc3c(c2)C[C@@H](NC[C@H](O)c2cccc(Cl)c2)CC3)c1 | 0.78 | 88 | 69 | – | – | – | – | – |
| O=C(O)c1ccc(Oc2ccc3c(c2)C[C@@H](NC[C@H](O)c2cccc(Cl)c2)CC3)cc1 | 37 | > 2.7 | > 100 | – | – | – | – | – |
| O=C(O)c1cc(NC2CCOCC2)cc(Oc2ccc3c(c2)C[C@@H](NC[C@H](O)c2cccc(Cl)c2)CC3)c1 | 1 | 340 | 340 | – | 0.06 | 0.02 | – | – |
| O=C(O)c1ccc(Oc2ccc3c(c2)C[C@@H](NC[C@H](O)c2cccc(Cl)c2)CCC3)cc1 | > 100 | – | > 100 | – | – | – | – | – |

| SMILES | EC50 [1] [nM] | Ratio EC50 (Homo sapiens) | EC50 [2] [nM] | EC50 [3] [nM] | Ratio (Canis familiaris [4]) | Ratio AUC (Canis familiaris [5]) | Ratio (Canis familiaris [6]) | Ratio AUC (Canis familiaris [7]) |
| --- | --- | --- | --- | --- | --- | --- | --- | --- |
| O=C(O)c1cccc(Oc2ccc3c(c2)C[C@@H](NC[C@H](O)c2cccnc2)CC3)c1 | 20 | > 5 | > 100 | – | 0.5 | 0.32 | – | – |
| O=C(O)c1ccc(-c2ccc3c(c2)C[C@@H](NC[C@H](O)c2cccc(Cl)c2)CCC3)cc1 | > 100 | – | > 100 | – | – | – | – | – |
| CCCNc1cc(Oc2ccc3c(c2)C[C@@H](NC[C@H](O)c2cccc(Cl)c2)CC3)cc(C(=O)O)c1 | 0.77 | 224 | 173 | – | – | – | – | – |
| Cc1cc(-c2ccc3c(c2)C[C@@H](NC[C@H](O)c2ccc(Cl)cc2)CC3)ccc1C(=O)O | 1.8 | 458 | 825 | – | – | – | – | – |
| O=C(O)c1ccc(-c2ccc3c(c2)C[C@@H](NC[C@H](O)c2ccc(Cl)cc2)CC3)c(F)c1 | 1.4 | 700 | 980 | – | – | – | 1.13 | 1.01 |
| Cc1ccc([C@@H](O)CN[C@H]2CCc3ccc(-c4ccc(C(=O)O)cc4)cc3C2)cc1 | 0.79 | > 1260 | > 1000 | – | – | – | 1.06 | 0.77 |
| CN(C)c1cc(Oc2ccc3c(c2)C[C@@H](NC[C@H](O)c2ccc(Cl)nc2)CC3)cc(C(=O)O)c1 | 1.8 | 155 | 270 | – | – | – | – | – |
| O=C(O)c1cccc(Oc2ccc3c(c2)C[C@@H](NC[C@H](O)c2ccc(Cl)cc2)CC3)c1 | 4.8 | 69 | 330 | – | – | – | – | – |
| O=C(O)c1ccc(-c2ccc3c(c2)C[C@@H](NC[C@H](O)c2cccc(Cl)c2)CC3)s1 | 2.4 | > 417 | > 1000 | – | – | – | – | – |
| O=C(O)c1ccc(-c2ccc3c(c2)C[C@@H](NC[C@H](O)c2ccccc2Cl)CC3)cc1 | 38 | 16.3 | 620 | – | – | – | – | – |
| O=C(O)c1ccc(-c2ccc3c(c2)C[C@@H](NC[C@H](O)c2ccc(Cl)nc2)CC3)cc1 | 0.85 | > 1260 | 200 | > 1000 | – | – | 0.73 | 0.53 |
| CC(=O)Nc1cc(Oc2ccc3c(c2)C[C@@H](NC[C@H](O)c2cccc(Cl)c2)CC3)cc(C(=O)O)c1 | 1.3 | 277 | 360 | – | 0.1 | 0.06 | – | – |
| O=C(O)c1ccc(-c2ccc3c(c2)C[C@@H](NC[C@H](O)c2ccc(Cl)c(Cl)c2)CC3)cc1 | 33 | > 30 | > 1000 | – | – | – | – | – |
| Cc1cc(C(=O)O)ccc1-c1ccc2c(c1)C[C@@H](NC[C@H](O)c1ccc(Cl)cc1)CC2 | 2 | 400 | 800 | – | – | – | 0.72 | 0.64 |
| O=C(O)c1cccc(Oc2ccc3c(c2)C[C@@H](NC[C@H](O)c2ccc(Cl)nc2)CC3)c1 | 4.1 | 34 | 140 | – | – | – | – | – |
| O=C(O)COc1ccc(Oc2ccc3c(c2)C[C@@H](NC[C@H](O)c2cccc(Cl)c2)CC3)cc1 | 24 | > 4.2 | > 100 | – | – | – | – | – |
| O=C(O)c1ccc(-c2ccc3c(c2)C[C@@H](NC[C@H](O)c2cccc(Cl)c2)CC3)nc1 | 9.6 | 51 | 490 | – | – | – | – | – |
| COc1cc(-c2ccc3c(c2)C[C@@H](NC[C@H](O)c2ccc(Cl)cc2)CC3)ccc1C(=O)O | 0.78 | > 1280 | > 1000 | – | – | – | 0.62 | 0.53 |
